Molecules are shown by their SMILES.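 Tested at 5 concentrations; 48 h exposure; 96-well plates; endpoints linearly interpolated, else capped at highest concentration. TGI: total growth inhibition.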

Among the test systems are UO-31 renal; MCF7 breast; CCRF-CEM leukemia; NCI-H460 lung; COLO 205 colon; SN12C renal; SR leukemia; TK-10 renal; MOLT-4 leukemia; OVCAR-4 ovarian; OVCAR-8 ovarian; RXF 393 renal; HS 578T breast; SK-OV-3 ovarian; MALME-3M melanoma; SW-620 colon; HCT-116 colon.
What all share (assay): NCI-60 cell line screen, 48 h

Regarding `O=C(c1cccs1)N(Cc1cccnc1)C(=S)N(Cc1cccnc1)C(=O)c1cccs1`, the TGI in the assay with UO-31 renal, in the assay on MCF7 breast, in the assay with CCRF-CEM leukemia, with NCI-H460 lung, with COLO 205 colon and in the assay with SN12C renal was over 100 µM each time. The TGI with SR leukemia, in the assay with TK-10 renal, in the assay on MOLT-4 leukemia, with OVCAR-4 ovarian, with OVCAR-8 ovarian and in the assay on RXF 393 renal was over 100 µM in each case. Besides, the TGI with HS 578T breast, in the assay on SK-OV-3 ovarian, in the assay with MALME-3M melanoma, in the assay with SW-620 colon and with HCT-116 colon was over 100 µM throughout.
Regarding `Cn1c(=O)n2n(c1=O)[C@@H](c1ccccc1)[C@H]2c1ccccc1`, the TGI in the assay on UO-31 renal, with MCF7 breast, with CCRF-CEM leukemia, in the assay with NCI-H460 lung, in the assay on COLO 205 colon and in the assay with SN12C renal was over 100 µM throughout. The TGI with SR leukemia, in the assay on TK-10 renal, in the assay on MOLT-4 leukemia, with OVCAR-4 ovarian, with OVCAR-8 ovarian and in the assay on RXF 393 renal was over 100 µM each time. Moreover, the TGI in the assay on HS 578T breast, in the assay with SK-OV-3 ovarian, in the assay with MALME-3M melanoma, in the assay on SW-620 colon and in the assay on HCT-116 colon was over 100 µM in each case.
`CC(C)NC(=O)OCc1c(COC(=O)NC(C)C)c(-c2ccc[n+](COC(=O)C(C)(C)C)c2)n2c1CCC2`: the TGI with UO-31 renal, in the assay on MCF7 breast, with CCRF-CEM leukemia, in the assay on NCI-H460 lung, with COLO 205 colon and in the assay on SN12C renal was over 100 µM in each case. Also, the TGI is over 100 µM in the assay with SR leukemia; over 100 µM in the assay with TK-10 renal; over 100 µM in the assay on MOLT-4 leukemia; over 100 µM with OVCAR-4 ovarian; over 100 µM in the assay with OVCAR-8 ovarian; over 92.8 µM in the assay with RXF 393 renal. Moreover, the TGI in the assay with HS 578T breast, in the assay with SK-OV-3 ovarian, with MALME-3M melanoma, in the assay with SW-620 colon and in the assay on HCT-116 colon was over 100 µM in each case.
`O=c1cc(-c2cccc(OCc3ccccc3)c2)[nH]c2cc3c(cc12)OCO3`: the TGI in the assay with UO-31 renal was 16 µM; in the assay on MCF7 breast it was over 100 µM; in the assay on CCRF-CEM leukemia it was 0.481 µM; with NCI-H460 lung, 11.2 µM; with COLO 205 colon, over 22.7 µM; in the assay with SN12C renal, over 22.1 µM. For the same compound, the TGI was over 100 µM with SR leukemia; 24.7 µM in the assay on TK-10 renal; over 100 µM in the assay on MOLT-4 leukemia; over 27.8 µM in the assay on OVCAR-4 ovarian; 9.87 µM in the assay with OVCAR-8 ovarian; 8.15 µM with RXF 393 renal. In addition, the TGI in the assay on HS 578T breast was 3.02 µM; with SK-OV-3 ovarian it was 4.23 µM; in the assay on MALME-3M melanoma, over 100 µM; with SW-620 colon, over 100 µM; with HCT-116 colon, over 100 µM.
On to `CCOC(=O)c1ccc(N=c2oc3ccc(OC)cc3cc2-c2nc3ccccc3[nH]2)cc1`, for which the TGI in the assay on UO-31 renal, in the assay on MCF7 breast, in the assay with CCRF-CEM leukemia, with NCI-H460 lung, with COLO 205 colon and in the assay with SN12C renal was over 100 µM in each case. The TGI in the assay with SR leukemia was over 100 µM; with TK-10 renal, over 100 µM; with MOLT-4 leukemia it was over 100 µM; in the assay on OVCAR-4 ovarian it was over 100 µM; in the assay on OVCAR-8 ovarian, 43.2 µM; in the assay on RXF 393 renal, over 100 µM. In addition, the TGI in the assay on HS 578T breast, in the assay on SK-OV-3 ovarian, in the assay with MALME-3M melanoma, in the assay with SW-620 colon and with HCT-116 colon was over 100 µM in each case.
For the compound `CN1CCc2cc(N)cc3c2C1Cc1ccc2c(c1-3)OCO2` (centres undefined), the TGI with UO-31 renal was 84.6 µM; with MCF7 breast, over 100 µM; with CCRF-CEM leukemia, 15.9 µM; in the assay on NCI-H460 lung, over 77.8 µM; in the assay on COLO 205 colon, over 86.9 µM; with SN12C renal, over 88.6 µM. Besides, the TGI in the assay on SR leukemia is over 39.6 µM; in the assay with TK-10 renal, over 88.8 µM; in the assay with MOLT-4 leukemia, 35 µM; with OVCAR-4 ovarian, over 90.4 µM; in the assay on OVCAR-8 ovarian, over 100 µM; in the assay on RXF 393 renal, over 88.2 µM. In addition, the TGI in the assay with HS 578T breast was 82.2 µM; in the assay on SK-OV-3 ovarian it was over 100 µM; in the assay with MALME-3M melanoma, 58.6 µM; in the assay on SW-620 colon it was over 100 µM; in the assay with HCT-116 colon, over 90.4 µM.
As to `c1cc(C[S+]2CCCC2)sc1C[S+]1CCCC1`, the TGI in the assay with UO-31 renal, in the assay with MCF7 breast, in the assay on CCRF-CEM leukemia, with NCI-H460 lung, in the assay on COLO 205 colon and in the assay with SN12C renal was over 100 µM throughout. Besides, the TGI in the assay with SR leukemia, in the assay with TK-10 renal, in the assay with MOLT-4 leukemia, with OVCAR-4 ovarian, with OVCAR-8 ovarian and in the assay on RXF 393 renal was over 100 µM throughout. In addition, the TGI in the assay on HS 578T breast, in the assay with SK-OV-3 ovarian, in the assay with MALME-3M melanoma, in the assay on SW-620 colon and with HCT-116 colon was over 100 µM each time.

Source of the values: PubChem BioAssay (NCI).
